According to ChEMBL document CHEMBL1201862, “PubChem BioAssay data set” (2004):
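Five compound concentrations were applied to cells in 96-well plates for 48 hours; endpoints were derived by simple linear interpolation of the resulting dose-response curve. GI50: concentration for 50% inhibition of growth.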 Activity calls are given as the source filed them. No stated cut-off is given here; in the data, active = GI50 up to about 1.1 µM and inactive = higher.

Assays:
Assay in all cases: growth of human tumour cells (NCI), 48 h
[1] = test system: ACHN
[2] = test system: TK-10
[3] = test system: K562
[4] = test system: MOLT-4
[5] = test system: SK-OV-3
[6] = test system: RPMI-8226
[7] = test system: U-251
[8] = test system: OVCAR-4
[9] = test system: XF498
[10] = test system: IGROV-1
[11] = test system: KM-20L2
[12] = test system: MCF7
[13] = test system: HT-29
[14] = test system: SK-MEL-28
[15] = test system: MDA-MB-231
[16] = test system: SNB-75
[17] = test system: SNB-78
[18] = test system: Malme-3M
[19] = test system: LOX IMVI
[20] = test system: HOP-92
[21] = test system: LXFL 529
[22] = test system: UACC-62
[23] = test system: SK-MEL-5
[24] = test system: PC-3
[25] = test system: COLO 205
[26] = test system: MDA-MB-435
[27] = test system: DMS-114
[28] = test system: NCI-H460
[29] = test system: SF-268
[30] = test system: CAKI-1
[31] = test system: A498
[32] = test system: DLD-1
[33] = test system: 786-0
[34] = test system: HOP-62
[35] = test system: MDA-N
[36] = test system: HCT-15
[37] = test system: NCI-H226
[38] = test system: HCT-116
[39] = test system: SK-MEL-2
[40] = test system: M14
[41] = test system: KM12
[42] = test system: NCI-H522
[43] = test system: OVCAR-8
[44] = test system: EKVX
[45] = test system: OVCAR-3
[46] = test system: UACC-257
[47] = test system: CCRF-CEM
[48] = test system: HL-60
[49] = test system: NCI/ADR-RES
[50] = test system: UO-31
[51] = test system: SW-620
[52] = test system: DMS-273
[53] = test system: A549
[54] = test system: Hs-578T
[55] = test system: SF-295
[56] = test system: RXF 631
[57] = test system: SN12C
[58] = test system: DU-145
[59] = test system: SNB-19
[60] = test system: SR
[61] = test system: OVCAR-5
[62] = test system: NCI-H23
[63] = test system: BT-549
[64] = test system: HOP-18
[65] = test system: M19-MEL
[66] = test system: HCC 2998
[67] = test system: T47D
[68] = test system: RXF 393
[69] = test system: SF-539

With `O=[N+]([O-])c1cc(C(F)(F)F)cc2n[se]nc12` the GI50 [1] was 2.65 µM (inactive), the GI50 [2] was 4.5 µM (inactive) and the GI50 [3] was 0.822 µM (active). For the same compound, the GI50 [4] was 1.48 µM (inactive), the GI50 [5] was 13.6 µM (inactive) and the GI50 [6] was 1.21 µM (inactive). The GI50 [7] was 15.1 µM (inactive), the GI50 [8] was 1.97 µM (inactive) and the GI50 [9] was 2.39 µM (inactive). The GI50 [10] was 5.07 µM (inactive), the GI50 [11] was 6.81 µM (inactive) and the GI50 [12] was 1.97 µM (inactive). For the same compound, the GI50 [13] was 7.29 µM (inactive), the GI50 [14] was 2.22 µM (inactive) and the GI50 [15] was 2.13 µM (inactive). For the same compound, the GI50 [16] was 7.64 µM (inactive), the GI50 [17] was 12.3 µM (inactive) and the GI50 [18] was 1.79 µM (inactive). The GI50 [19] was 5.53 µM (inactive), the GI50 [20] was 2.26 µM (inactive) and the GI50 [21] was 1.72 µM (inactive). The GI50 [22] was 4.15 µM (inactive), the GI50 [23] was 3.24 µM (inactive) and the GI50 [24] was 4 µM (inactive). For the same compound, the GI50 [25] was 2.03 µM (inactive), the GI50 [26] was 2.33 µM (inactive) and the GI50 [27] was 2.36 µM (inactive). For the same compound, the GI50 [28] was 6.22 µM (inactive), the GI50 [29] was 5 µM (inactive) and the GI50 [30] was 4.6 µM (inactive). The GI50 [31] was 16.8 µM (inactive), the GI50 [32] was 3.18 µM (inactive) and the GI50 [33] was 2.21 µM (inactive). The GI50 [34] was 15.7 µM (inactive), the GI50 [35] was 1.91 µM (inactive) and the GI50 [36] was 2.28 µM. The GI50 [37] was 20.6 µM (inactive), the GI50 [38] was 1.75 µM (inactive) and the GI50 [39] was 8.38 µM (inactive). The GI50 [40] was 1.71 µM (inactive), the GI50 [41] was 9.33 µM (inactive) and the GI50 [42] was 3.13 µM (inactive). The GI50 [43] was 1.97 µM (inactive), the GI50 [44] was 5.3 µM (inactive) and the GI50 [45] was 1.67 µM (inactive). The GI50 [46] was 2.16 µM (inactive), the GI50 [47] was 1.68 µM (inactive) and the GI50 [48] was 0.429 µM (active). The GI50 [49] was 2.12 µM (inactive), the GI50 [50] was 5.53 µM (inactive) and the GI50 [51] was 1.45 µM (inactive). For the same compound, the GI50 [52] was 13.2 µM (inactive), the GI50 [53] was 11.4 µM (inactive) and the GI50 [54] was 19.3 µM (inactive). For the same compound, the GI50 [55] was 12.5 µM (inactive), the GI50 [56] was 11 µM (inactive) and the GI50 [57] was 4.88 µM (inactive). For the same compound, the GI50 [58] was 3.21 µM (inactive), the GI50 [59] was 15.5 µM (inactive) and the GI50 [60] was 1.36 µM (inactive). For the same compound, the GI50 [61] was 13.1 µM (inactive), the GI50 [62] was 3.93 µM (inactive) and the GI50 [63] was 2.81 µM (inactive). The GI50 [64] was 3.14 µM (inactive), the GI50 [65] was 3.33 µM (inactive) and the GI50 [66] was 3.98 µM (inactive). For the same compound, the GI50 [67] was 3.17 µM (inactive), the GI50 [68] was 2.3 µM (inactive) and the GI50 [69] was 3.89 µM (inactive).
